For four compounds, MIC results are on record in DBAASP.

Values after ≈ are worked out from the molar mass of the structure shown.

Some test systems named below: Enterococcus faecium; Penicillium roqueforti; Botrytis cinerea 101; Saccharomyces cerevisiae.
Holding throughout (test): ≥ marks a high value that may be exact or a test limit, other limits are often not marked, values filed in µg/mL are converted to µM
Assay [1] concerns Staphylococcus aureus K52.
In assay [2] the test system is Enterococcus faecalis ATCC 29212.
For assay [3], the system named is Staphylococcus aureus ATCC 25923.
Assay [4] has as its system Staphylococcus aureus K35.
The test system of assay [5] is Corynebacterium glutamicum ATCC 13032.
Assay [6] has as its system Candida albicans ATCC 10231.
Assay [7] has as its system Escherichia coli ATCC 25922.
Assay [8] has as its system Vibrio anguillarum FT1801.
Assay [9] has as its system Staphylococcus aureus ATCC 9144.
The subject of assay [10] is Acinetobacter baumannii ATCC 17978.
In assay [11] the test system is Candida albicans ATCC 90028.
The subject of assay [12] is Klebsiella pneumoniae NCTC 13368.
Assay [13] deals with Pseudomonas aeruginosa PAO1.
The subject of assay [14] is Escherichia coli NCTC 12923.
Assay [15] has as its system Staphylococcus aureus USA 300.
For assay [16], the system named is Escherichia coli ATCC 700928.
Assay [17] concerns Bacillus subtilis ATCC 13933.
For assay [18], the system named is Pseudomonas aeruginosa CCARM 2095.
For assay [19], the system named is Acinetobacter baumannii CCARM 12005.
Assay [20] relates to Salmonella typhimurium CCARM 8003.
Assay [21] deals with Pseudomonas aeruginosa CCARM 2002.
Assay [22] concerns Escherichia coli CCARM 1229.
Assay [23] has as its system Staphylococcus aureus KCTC 1621.
Assay [24] deals with Escherichia coli CCARM 1238.
Assay [25] concerns Bacillus subtilis KCTC 3068.
For assay [26], the system named is Acinetobacter baumannii CCARM 12037.
The subject of assay [27] is Escherichia coli KCTC 1682.
Assay [28] relates to Enterococcus faecalis KCTC 2011.
Assay [29] relates to Salmonella typhimurium CCARM 8007.
Assay [30] concerns Pseudomonas aeruginosa KCTC 1637.
Assay [31] concerns Acinetobacter baumannii CCARM 12036.
Assay [32] deals with Pseudomonas aeruginosa CCARM 2163.
The test system of assay [33] is Staphylococcus aureus CCARM 3126.
Assay [34] relates to Staphylococcus aureus CCARM 3089.
Assay [35] has as its system Acinetobacter baumannii CCARM 12035.
The test system of assay [36] is Salmonella typhimurium CCARM 8009.
For assay [37], the system named is Staphylococcus aureus CCARM 3108.
Assay [38] concerns Salmonella typhimurium KCTC 1926.

As usually defined, the MIC is the lowest concentration found to suppress growth. Low readings indicate greater potency, high ones weaker potency. Regarding `CC(C)C[C@H](NC(=O)[C@H](C)NC(=O)CNC(=O)[C@H](CO)NC(=O)[C@H](CC(C)C)NC(=O)[C@@H](NC(=O)[C@H](CCCN=C(N)N)NC(=O)CNC(=O)[C@H](C)NC(=O)[C@H](CC(C)C)NC(=O)[C@@H]1CCCN1C(=O)[C@H](CC(C)C)NC(=O)[C@@H](N)Cc1ccccc1)C(C)C)C(N)=O` [FLPLAGRVLSGAL], the MIC in assay [1] is ≥ 99.8 µM; against Enterococcus faecium it was ≥ 99.8 µM; in assay [2], > 168 µM; in assay [3] it was > 168 µM; in assay [4], ≥ 99.8 µM.

For the compound `CC(C)C[C@H](NC(=O)[C@H](C)NC(=O)[C@H](Cc1cnc[nH]1)NC(=O)[C@H](C)NC(=O)[C@H](C)NC(=O)[C@H](C)NC(=O)[C@H](CS)NC(=O)[C@H](C)NC(=O)CNC(=O)[C@H](CCCN=C(N)N)NC(=O)[C@H](CC(C)C)NC(=O)[C@@H](N)CC(=O)O)C(=O)O` [DLRGACAAAHAL], the MIC is ≥ 100 µM in assay [5]; > 100 µM in [6]; ≥ 100 µM in the assay with Penicillium roqueforti; > 100 µM in assay [7]; ≥ 100 µM in assay [8]; ≥ 100 µM against Botrytis cinerea 101. Also, the MIC (in the assay with Saccharomyces cerevisiae; in assay [9]) was ≥ 100 µM in each case.

In the case of `CC[C@H](C)[C@H](NC(=O)CNC(=O)[C@@H](N)CCCCN)C(=O)N[C@@H](CCCN=C(N)N)C(=O)NCC(=O)N[C@@H](Cc1ccc(O)cc1)C(=O)N[C@@H](CCCCN)C(=O)NCC(=O)NCC(=O)N[C@@H](Cc1ccc(O)cc1)C(=O)N[C@@H](CCCCN)C(=O)NCC(=O)N[C@@H](C)C(=O)N[C@@H](Cc1ccccc1)C(=O)N[C@@H](CCCCN)C(=O)N[C@@H](CCC(N)=O)C(=O)N[C@H](C(=O)N[C@@H](CCCCN)C(=O)N[C@@H](Cc1ccc(O)cc1)C(=O)O)[C@@H](C)O` [KGIRGYKGGYKGAFKQTKY], the MIC in assay [10] was ≥ 59.5 µM; in assay [11], 2.2 µM (≈ 4.73 µg/mL); in [12] it was ≥ 59.5 µM; in [13], > 59.5 µM; in [14] it was ≥ 59.5 µM; in [15] it was ≥ 59.5 µM. Also, the MIC in [16] was ≥ 55.8 µM; in [17] it was ≥ 55.8 µM; in [9], ≥ 59.5 µM.

Take `CC[C@H](C)[C@H](NC(=O)[C@H](CCCCN)NC(=O)[C@H](Cc1c[nH]c2ccccc12)NC(=O)[C@@H](N)CCCN=C(N)N)C(=O)N[C@@H](Cc1ccccc1)C(=O)N[C@@H](CCCCN)C(=O)N[C@@H](CCCCN)C(=O)N[C@H](C(=O)N1CCC[C@H]1C(=O)N[C@@H](CCCCN)C(=O)N[C@@H](Cc1ccccc1)C(=O)N[C@@H](CC(C)C)C(=O)N[C@@H](Cc1cnc[nH]1)C(=O)N[C@@H](CO)C(=O)N[C@@H](C)C(=O)N[C@@H](CCCCN)C(=O)N[C@@H](CCCCN)C(=O)N[C@@H](Cc1ccccc1)C(N)=O)[C@@H](C)CC` [RWKIFKKIPKFLHSAKKF]: the MIC worked out at 2 µM (≈ 4.6 µg/mL) in assay [18]; 2 µM (≈ 4.6 µg/mL) in assay [19]; 4 µM (≈ 9.21 µg/mL) in assay [20]; 2 µM (≈ 4.6 µg/mL) in [21]; 4 µM (≈ 9.21 µg/mL) in [22]; 4 µM (≈ 9.21 µg/mL) in assay [23]. Moreover, the MIC amounted to 2 µM (≈ 4.6 µg/mL) in assay [24]; 4 µM (≈ 9.21 µg/mL) in [25]; 2 µM (≈ 4.6 µg/mL) in assay [26]; 2 µM (≈ 4.6 µg/mL) in assay [27]; 16 µM (≈ 36.8 µg/mL) in assay [28]; 2 µM (≈ 4.6 µg/mL) in [29]. Besides, the MIC in assay [30] is 4 µM (≈ 9.21 µg/mL); in assay [31], 2 µM (≈ 4.6 µg/mL); in [32], 2 µM (≈ 4.6 µg/mL); in assay [33], 8 µM (≈ 18.4 µg/mL); in assay [34] it was 8 µM (≈ 18.4 µg/mL); in assay [35], 2 µM (≈ 4.6 µg/mL). Besides, the MIC in assay [36] came to 2 µM (≈ 4.6 µg/mL); in [37], 4 µM (≈ 9.21 µg/mL); in [38] it was 2 µM (≈ 4.6 µg/mL).
